pIC50: −log10 of the molar value. Read-outs that look alike come from different tables or passages of the source. Each block holds one molecule with its values, some of them ahead of it.
Legend:
[1] = tested on: BaF3 cells expressing EGFR L858R-T790M-C797S; assay: Ba/F3 EGFR cell viability (CellTiter-Glo), L858R-T790M-C797S; format: cell-based; details: Mus musculus, read-out: CTGlo (GI50)
Description: (§1) RPMI 1640 media, cell culture flasks, and 384-well microplates were purchased from VWR (Radnor, PA, USA). Fetal bovine serum (FBS) was purchased from Life Technologies (Carlsbad, CA, USA) and CellTiter-Glo® was purchased from Promega (Madison, WI, USA). The Ba/F3 parental cell line was purchased from CrownBio (Santa Clara, CA). BaF3 cell lines ectopically expressing the EGFR mutations L858R, L858R-T790M, L858R-C797S, and L858R-T790M-C797S were purchased from CrownBio and EGFR mutations L858R-L718Q, L858R-T790M-L718Q, L858R-L792H, and L858R-T790M-L792H, were purchased from Signosis (Santa Clara, CA).
(§2) Cell viability was assessed based on the quantification of ATP using the CellTiter-Glo® assay (Promega, Madison, WI, USA). To determine the effect of compounds on cell viability, all Ba/F3 cell lines were plated at a cell density of 2000 cells/well in 384-well plates using RPMI 1640+10% FBS and treated with compounds of interest using a 10-point half-log dilution series in duplicate for 72 hours, with the highest dose set at […]. CellTiter-Glo® reagent was then added and luminescence signals were measured using an EnVision™ Multimode plate reader (Perkin Elmer, Santa Clara, CA). For data normalization, cells untreated with the test compounds at Time=72 hours were set to 100% (equivalent to maximal cell growth after 72 hours); cells untreated with the test compounds at Time=0 hours were set to 0% (equivalent to cytostasis); and media-only wells were set to −100% (equivalent to complete cytotoxicity). % Viability was determined by normalizing the signal with positive and DMSO treated negative controls on the same microtiter plate. The half-maximal inhibition of cell growth (GI50) is computed from where the fitted curve crosses 50% while the half-maximal lethal dose (LD50) is computed from where the fitted curve crosses −50%.

pY1068 EGFR L858R-T790M = molecular target: T1, pY1068 EGFR L858R-T790M (Homo sapiens, UniProt P00533, L858R/T790M); assay: Phospho-EGFR (pY1068) inhibition HTRF, NCI-H1975; format: cell-based; details: 6 hours, read-out: pEGFR IC50
T1 construct: NCI-H1975 (harboring EGFR heterozygous L858R-T790M mutations); host or cells: NCI-H1975
Description: (§3) NCI-H1975 (harboring EGFR heterozygous L858R-T790M mutations) and NCI-H3255 (harboring EGFR heterozygous L858R mutation) were purchased from ATCC and NCI, respectively. NCI-H1975+CS (harboring EGFR heterozygous L858R-T790M-C797S mutations) was generated using CRISPR technology to introduce the additional C797S mutation by Horizon Discovery. A431 (harboring EGFR wildtype) was purchased from ATCC. RPMI 1640 no-phenol red medium and fetal bovine serum (FBS) were purchased from Gibco (Grand Island, NY, USA). Cell culture flasks and 384-well microplates were acquired from VWR (Radnor, PA, USA). Phosphorylated (pY1068) EGFR and Total EGFR (using L858R-specific detection antibody and pan-EGFR antibody for EGFR mutant cell lines and EGFR wild-type cell lines, respectively) HTRF assay kits were purchased from Cisbio (Bedford, MA, USA).
(§4) Degradation of EGFR protein containing L858R mutation or wild-type was determined based on quantification of FRET signal using a Total EGFR (L858R-specific or pan-EGFR detecting) HTRF assay kit. Phospho-EGFR (pEGFR) inhibition was determined based on quantification of FRET signal using a pY1068 EGFR HTRF assay kit. In separate assay plates, test compounds were added to the 384-well plate from a top concentration of 10 μM with 11 points, half log titration in duplicates. For each assay, 12.5 uL of cells suspended in assay media (RPMI 1640 no-phenol red medium+10% FBS) at cell densities indicated for each cell line in Table 8 below were dispensed using a multi-channel pipette to 384-well low volume white HTRF microplates containing a duplicate concentration range of test compounds and DMSO controls. The plates were kept at 37° C. with 5% CO2 for 6 hours and then incubated with either phospho EGFR or Total EGFR HTRF detection antibodies according to the cell line and EGFR mutant being assayed. Cells treated in the absence of the test compound were the negative control. Positive control was set by wells containing all reagents but no cells. FRET signal was acquired on EnVision™ Multilabel Reader (PerkinElmer, Santa Clara, CA, USA). Compound concentration that achieves 50% degradation and inhibition was reported as DC50 and IC50, respectively.

EGFR L858R-T790M = molecular target: T2, EGFR L858R-T790M (Homo sapiens, UniProt P00533, L858R/T790M); assay: EGFR degradation, Total EGFR (L858R-specific) HTRF, NCI-H1975; format: cell-based; details: 6 hours
T2 construct: NCI-H1975 (harboring EGFR heterozygous L858R-T790M mutations); host or cells: NCI-H1975
In short: (§5)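 HTRF read-outs: pY1068 phospho-EGFR for IC50; total EGFR (pan-EGFR in A431, L858R-specific in mutant lines) for DC50. Compounds were titrated 11 points, half-log, from 10 μM in duplicate onto cells in 10% FBS RPMI, incubated 6 h at 37°C.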

[2] = tested on: BaF3 cells expressing EGFR L858R-T790M-L792H; assay: Ba/F3 EGFR cell viability (CellTiter-Glo), L858R-T790M-L792H; format: cell-based; details: Mus musculus, read-out: CTGlo (GI50)
Description: as §1, §2

[3] = tested on: BaF3 cells expressing EGFR L858R-T790M-L718Q; assay: Ba/F3 EGFR cell viability (CellTiter-Glo), L858R-T790M-L718Q; format: cell-based; details: Mus musculus, read-out: CTGlo (GI50)
Description: as §1, §2

[4] = tested on: BaF3 cells expressing EGFR L858R-L792H; assay: Ba/F3 EGFR cell viability (CellTiter-Glo), L858R-L792H; format: cell-based; details: Mus musculus, read-out: CTGlo (GI50)
Description: as §1, §2

[5] = tested on: BaF3 cells expressing EGFR L858R-L718Q; assay: Ba/F3 EGFR cell viability (CellTiter-Glo), L858R-L718Q; format: cell-based; details: Mus musculus, read-out: CTGlo (GI50)
Description: as §1, §2

pY1068 EGFR L858R = molecular target: T3, pY1068 EGFR L858R (Homo sapiens, UniProt P00533, L858R); assay: Phospho-EGFR (pY1068) inhibition HTRF, NCI-H3255; format: cell-based; details: 6 hours, read-out: pEGFR IC50
T3 construct: NCI-H3255 (harboring EGFR heterozygous L858R mutation); host or cells: NCI-H3255
Description: as §3, §4

EGFR L858R-T790M-C797S = molecular target: T4, EGFR L858R-T790M-C797S (Homo sapiens, UniProt P00533, C797S/L858R/T790M); assay: EGFR degradation, Total EGFR (L858R-specific) HTRF, NCI-H1975+CS; format: cell-based; details: H1975 + CS (L858R-T790M-C797S), 6 hours; read-out: tEGFR DC50
T4 construct: generated using CRISPR technology to introduce the additional C797S mutation by Horizon Discovery; host or cells: NCI-H1975+CS (CRISPR knock-in of C797S)
In short: as §5

EGFR WT = molecular target: T5, EGFR WT (Homo sapiens, UniProt P00533); assay: EGFR degradation, Total EGFR (pan-EGFR) HTRF, A431; format: cell-based; details: A431 (wild-type), 6 hours; read-out: tEGFR DC50
T5 construct: A431 (harboring EGFR wildtype) was purchased from ATCC; host or cells: A431
Description: as §3, §4

[6] = molecular target: T6, pY1068 EGFR L858R-T790M-C797S (Homo sapiens, UniProt P00533, C797S/L858R/T790M); assay: Phospho-EGFR (pY1068) inhibition HTRF, NCI-H1975+CS; format: cell-based; details: 6 hours, read-out: pEGFR IC50
T6 construct: generated using CRISPR technology to introduce the additional C797S mutation by Horizon Discovery; host or cells: NCI-H1975+CS (CRISPR knock-in of C797S)
Description: as §3, §4

EGFR L858R = EGFR L858R (Homo sapiens, UniProt P00533, L858R); assay: EGFR degradation, Total EGFR (L858R-specific) HTRF, NCI-H3255; format: cell-based; parameters: NCI-H3255 (harboring EGFR heterozygous L858R mutation); host or cells: NCI-H3255; details: H3255 (L858R), 6 hours; read-out: tEGFR DC50
In short: as §5

[7] = tested on: engineered triple mutant EGFR (L858R-T790M-C797S) BaF3 tumors; assay: BaF3 triple mutant EGFR allograft efficacy; format: in vivo, female BALB/c nude mice; details: Compound 1 or 2 at 20, 50, 100 mg/kg/day PO BID; osimertinib 25 mg/kg/day PO QD; 14 days
Description: Each Compound was administered BID (twice a day) orally (PO).
Tumor volume was measured twice weekly in two dimensions using calipers, and volume (mm^3) was calculated using the formula: V=0.5 a×b^2 where a and b are the long and short diameters of the tumor in mm, respectively. […] Treatment began on Day 0 with established subcutaneous BaF3 tumors with a mean tumor volume (MTV) of 108 mm^3.
Body weight and MTV were measured on a 2× weekly schedule. Statistical analysis was performed using a one-way ANOVA followed by Dunnett's multiple comparison test. Data are expressed as MTV±SEM.

[8] = H1975 (L858R-T790M), read-out: tEGFR DC50
[9] = Table 9A, NCI-H1975 cells, Total EGFR HTRF, read-out: H1975 EGFR DC50

T1 sequence (P00533 25-1210 T790M/L858R): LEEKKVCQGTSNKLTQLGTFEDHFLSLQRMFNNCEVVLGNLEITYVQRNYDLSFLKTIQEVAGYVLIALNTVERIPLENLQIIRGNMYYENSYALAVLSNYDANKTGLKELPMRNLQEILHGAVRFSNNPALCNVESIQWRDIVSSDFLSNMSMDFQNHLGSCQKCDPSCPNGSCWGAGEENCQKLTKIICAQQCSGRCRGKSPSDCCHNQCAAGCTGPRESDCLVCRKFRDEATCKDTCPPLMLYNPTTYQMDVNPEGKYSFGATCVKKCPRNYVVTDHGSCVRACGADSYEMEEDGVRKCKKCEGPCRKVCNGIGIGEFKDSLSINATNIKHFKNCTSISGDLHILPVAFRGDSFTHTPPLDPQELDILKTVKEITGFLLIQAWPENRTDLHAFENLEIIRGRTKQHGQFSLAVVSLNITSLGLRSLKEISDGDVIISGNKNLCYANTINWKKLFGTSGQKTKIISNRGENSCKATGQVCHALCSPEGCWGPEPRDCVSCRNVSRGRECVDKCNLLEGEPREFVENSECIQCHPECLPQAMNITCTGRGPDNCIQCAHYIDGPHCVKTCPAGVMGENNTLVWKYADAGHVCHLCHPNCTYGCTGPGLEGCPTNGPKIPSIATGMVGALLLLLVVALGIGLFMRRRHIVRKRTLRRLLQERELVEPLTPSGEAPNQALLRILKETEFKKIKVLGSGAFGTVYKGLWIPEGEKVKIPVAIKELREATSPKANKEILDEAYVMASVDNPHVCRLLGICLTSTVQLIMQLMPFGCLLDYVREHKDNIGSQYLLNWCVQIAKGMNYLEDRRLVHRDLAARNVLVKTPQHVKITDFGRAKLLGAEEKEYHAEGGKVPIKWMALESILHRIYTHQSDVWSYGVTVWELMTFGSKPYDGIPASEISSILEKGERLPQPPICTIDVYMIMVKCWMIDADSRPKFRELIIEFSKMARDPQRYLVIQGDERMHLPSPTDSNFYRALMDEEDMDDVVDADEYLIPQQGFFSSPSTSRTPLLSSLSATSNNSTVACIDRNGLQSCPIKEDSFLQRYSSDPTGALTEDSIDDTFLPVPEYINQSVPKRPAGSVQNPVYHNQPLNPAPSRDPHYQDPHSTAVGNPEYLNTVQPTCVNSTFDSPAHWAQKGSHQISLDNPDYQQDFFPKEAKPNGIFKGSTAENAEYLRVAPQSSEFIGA
T2 sequence (P00533 25-1210 T790M/L858R): as above
T3 sequence (P00533 25-1210 L858R): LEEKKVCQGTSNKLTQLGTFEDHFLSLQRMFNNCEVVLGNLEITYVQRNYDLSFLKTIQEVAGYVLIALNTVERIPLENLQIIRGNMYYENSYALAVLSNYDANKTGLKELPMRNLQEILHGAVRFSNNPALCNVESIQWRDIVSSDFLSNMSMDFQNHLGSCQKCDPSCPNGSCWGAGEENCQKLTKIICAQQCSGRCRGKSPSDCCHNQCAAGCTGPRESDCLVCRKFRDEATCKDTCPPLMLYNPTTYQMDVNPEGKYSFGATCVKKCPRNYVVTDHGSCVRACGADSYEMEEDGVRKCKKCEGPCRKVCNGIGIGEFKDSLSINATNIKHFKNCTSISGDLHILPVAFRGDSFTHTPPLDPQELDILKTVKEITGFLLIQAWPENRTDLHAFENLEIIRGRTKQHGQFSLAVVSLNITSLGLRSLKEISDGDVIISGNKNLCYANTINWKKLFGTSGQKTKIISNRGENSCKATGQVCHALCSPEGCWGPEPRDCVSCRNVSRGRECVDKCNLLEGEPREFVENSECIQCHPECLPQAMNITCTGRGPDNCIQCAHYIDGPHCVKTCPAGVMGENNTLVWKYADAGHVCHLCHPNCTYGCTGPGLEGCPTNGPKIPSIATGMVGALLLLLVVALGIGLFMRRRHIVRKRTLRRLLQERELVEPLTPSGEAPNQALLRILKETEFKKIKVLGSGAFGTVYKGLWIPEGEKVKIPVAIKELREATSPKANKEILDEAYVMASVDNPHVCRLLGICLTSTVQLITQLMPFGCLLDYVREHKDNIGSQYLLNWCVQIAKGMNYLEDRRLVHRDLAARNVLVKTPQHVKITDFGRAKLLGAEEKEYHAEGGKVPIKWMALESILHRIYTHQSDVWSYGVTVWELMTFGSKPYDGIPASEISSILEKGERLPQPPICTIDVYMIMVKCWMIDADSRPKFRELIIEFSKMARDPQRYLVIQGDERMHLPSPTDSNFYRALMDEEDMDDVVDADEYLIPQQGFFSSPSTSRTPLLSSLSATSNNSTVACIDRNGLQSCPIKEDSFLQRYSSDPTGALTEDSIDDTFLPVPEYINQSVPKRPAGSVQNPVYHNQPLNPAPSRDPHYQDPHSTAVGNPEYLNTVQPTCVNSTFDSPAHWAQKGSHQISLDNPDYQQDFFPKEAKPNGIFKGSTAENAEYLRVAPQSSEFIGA
Sequence of EGFR L858R (P00533 25-1210 L858R): as above

Structure (SMILES): Cn1nc(N2CCC(=O)NC2=O)c2ccc(C3CCN(CC(=O)N4CC5(C4)CN(c4ccc(-c6cc(F)c7c(c6)C(=O)N(C(C(=O)Nc6ccccn6)c6ncn8c6CCC8)C7)cc4)C5)CC3(F)F)cc21 (centres unmarked) [Compound 5, 2-(6,7-dihydro-5H-pyrrolo[1,2-c]imidazol-1-yl)-2-[6-[4-[2-[2-[4-[3-(2,4-dioxohexahydropyrimidin-1-yl)-1-methyl-indazol-6-yl]-3,3-difluoro-1-piperidyl]acetyl]-2,6-diazaspiro[3.3]heptan-6-yl]phenyl]-4-fluoro-1-oxo-isoindolin-2-yl]-N-(2-pyridyl)acetamide]
pIC50 (pY1068 EGFR L858R-T790M): 7.92
DC50 (EGFR L858R-T790M; [9]): < 50 nM
pIC50 (pY1068 EGFR L858R): 7.72
DC50 (EGFR L858R-T790M-C797S): 23 nM
DC50 (EGFR WT): > 10 µM
pIC50 [6]: 7.66
DC50 (EGFR L858R): 22 nM

Structure (SMILES): O=C1CC[C@H](Nc2ccc(N3CCC(O)(CC(=O)N4CCC5(CC4)CN(c4ccc(-c6cc(F)c7c(c6)C(=O)N(C(C(=O)Nc6nccs6)c6ncn8c6CCC8)C7)cc4)C5)CC3)c(F)c2)C(=O)N1 (stereo partly drawn) [Compound 9, 2-(6,7-dihydro-5H-pyrrolo[1,2-c]imidazol-1-yl)-2-[6-[4-[7-[2-[1-[4-[[(3S)-2,6-dioxo-3-piperidyl]amino]-2-fluoro-phenyl]-4-hydroxy-4-piperidyl]acetyl]-2,7-diazaspiro[3.5]nonan-2-yl]phenyl]-4-fluoro-1-oxo-isoindolin-2-yl]-N-thiazol-2-yl-acetamide]
GI50 [1]: 16 nM
pIC50 (pY1068 EGFR L858R-T790M): 7.52
DC50 (EGFR L858R-T790M; [8]): 24 nM
DC50 (EGFR L858R-T790M; [9]): < 50 nM
GI50 [2]: 33 nM
GI50 [3]: 82 nM
GI50 [4]: 10 nM
GI50 [5]: 23 nM

Structure (SMILES): C=CC(=O)Nc1cc(Nc2nccc(-c3cn(C)c4ccccc34)n2)c(OC)cc1N(C)CCN(C)C [osimertinib, reference compound]
efficacy on BaF3 tumor volume [7]: minimal efficacy

More lines, now with the values ahead:

GI50 [1]: 10 nM
pIC50 (pY1068 EGFR L858R-T790M): 7.77
DC50 (EGFR L858R-T790M; [8]): 15 nM
DC50 (EGFR L858R-T790M; [9]): < 50 nM
GI50 [2]: 23 nM
GI50 [3]: 45 nM
GI50 [4]: 7 nM
GI50 [5]: 17 nM
Structure (SMILES): O=C1CCC(Nc2ccc(N3CCC(O)(CC(=O)N4CC5(C4)CN(c4ccc(-c6cc(F)c7c(c6)C(=O)N(C(C(=O)Nc6nccs6)c6ncn8c6CCC8)C7)cc4)C5)CC3)c(Cl)c2)C(=O)N1 (single isomer, unassigned; isomer 1) [Compound 7, 2-(6-(4-(6-(2-(1-(2-chloro-4-((2,6-dioxopiperidin-3-yl)amino)phenyl)-4-hydroxypiperidin-4-yl)acetyl)-2,6-diazaspiro[3.3]heptan-2-yl)phenyl)-4-fluoro-1-oxoisoindolin-2-yl)-2-(6,7-dihydro-5H-pyrrolo[1,2-c]imidazol-1-yl)-N-(thiazol-2-yl)acetamide, isomer 1]

GI50 [1]: 13 nM
pIC50 (pY1068 EGFR L858R-T790M): 7.66
DC50 (EGFR L858R-T790M; [8]): 23 nM
DC50 (EGFR L858R-T790M; [9]): < 50 nM
GI50 [2]: 45 nM
GI50 [3]: 403 nM
GI50 [4]: 213 nM
GI50 [5]: 2020 nM
Structure (SMILES): O=C1CCN(c2ccc(N3CCC(O)(CC(=O)N4CC5(C4)CN(c4ccc(-c6cc(F)c7c(c6)C(=O)N(C(C(=O)Nc6nccs6)c6ncn8c6CCC8)C7)cc4)C5)CC3)c(Cl)c2)C(=O)N1 (centres unmarked) [Compound 8, 2-[6-[4-[2-[2-[1-[2-chloro-4-(2,4-dioxohexahydropyrimidin-1-yl)phenyl]-4-hydroxy-4-piperidyl]acetyl]-2,6-diazaspiro[3.3]heptan-6-yl]phenyl]-4-fluoro-1-oxo-isoindolin-2-yl]-2-(6,7-dihydro-5H-pyrrolo[1,2-c]imidazol-1-yl)-N-thiazol-2-yl-acetamide]
